System: TPM3-NTRK1-wt IC50 / primary target (e.g. CD74-ROS1-wt) IC50, Ba/F3 cells
Assay: Cell assay TRKA selectivity (TRKA potency divided by primary target potency)
Type: cell-based
Conditions: for TPM3-NTRK1-wt/CD74-ROS1-G2032R: TRKA selectivity ratio: TPM3-NTRK1-wt IC50 / CD74-ROS1-G2032R IC50, Ba/F3 cells; for TPM3-NTRK1-wt/CD74-ROS1-wt: TRKA selectivity ratio: TPM3-NTRK1-wt IC50 / CD74-ROS1-wt IC50, Ba/F3 cells; for TPM3-NTRK1-wt/EML4-ALK-L1196M-G1202R: TRKA selectivity ratio: TPM3-NTRK1-wt IC50 / EML4-ALK-L1196M-G1202R IC50, Ba/F3 cells; for TPM3-NTRK1-wt/EML4-ALK-wt: TRKA selectivity ratio: TPM3-NTRK1-wt IC50 / EML4-ALK-wt IC50, Ba/F3 cells
In short: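 Ratio of TRKA to primary-target cellular IC50 (e.g. TPM3-NTRK1-wt/CD74-ROS1-wt), grouped into bins A >30, B >10, C ≥1, D <1. Each IC50 came from engineered Ba/F3 fusion lines grown without IL-3, dosed for 72 h and read as CellTiter-Glo luminescence, with a four-parameter logistic fit.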

CCc1nn(C)c2c1-c1cnc(N)c(c1)O[C@H](C)c1cc(F)ccc1-c1nc(C)sc1C2 [Example 173, (19R)-3-ethyl-16-fluoro-5,10,19-trimethyl-20-oxa-9-thia-4,5,11,23-tetraazapentacyclo[19.3.1.0^2,^6.0^8,^12.0^13,^18]pentacosa-1(24),2(6),3,8(12),10,13,15,17,21(25),22-decaen-22-amine]
TPM3-NTRK1-wt/CD74-ROS1-G2032R: A (bin A for very high selectivity, ratio>30-fold)
TPM3-NTRK1-wt/CD74-ROS1-wt: A (bin A for very high selectivity, ratio>30-fold)
TPM3-NTRK1-wt/EML4-ALK-L1196M-G1202R: B (bin B for high selectivity, ratio>10-fold)
TPM3-NTRK1-wt/EML4-ALK-wt: A (bin A for very high selectivity, ratio>30-fold)

Cc1nc2c(s1)Cc1cnn(C(F)F)c1-c1cnc(N)c(c1)O[C@H](C)c1cc(F)ccc1-2 [Example 72, (19R)-3-(difluoromethyl)-16-fluoro-10,19-dimethyl-20-oxa-9-thia-3,4,11,23-tetraazapentacyclo[19.3.1.0^2,^6.0^8,^12.0^13,^18]pentacosa-1(24),2(6),4,8(12),10,13,15,17,21(25),22-decaen-22-amine]
TPM3-NTRK1-wt/CD74-ROS1-G2032R: A (bin A for very high selectivity, ratio>30-fold)
TPM3-NTRK1-wt/CD74-ROS1-wt: A (bin A for very high selectivity, ratio>30-fold)
TPM3-NTRK1-wt/EML4-ALK-L1196M-G1202R: C (bin C for moderate selectivity, ratio≥1)
TPM3-NTRK1-wt/EML4-ALK-wt: A (bin A for very high selectivity, ratio>30-fold)

CCn1ncc2c1-c1cnc(N)c(c1)O[C@H](C)c1cc(F)ccc1-c1nn(C)c(OC)c1C2 [Example 157, (19R)-3-ethyl-16-fluoro-9-methoxy-10,19-dimethyl-20-oxa-3,4,10,11,23-pentaazapentacyclo[19.3.1.0^2,^6.0^8,^12.0^13,^18]pentacosa-1(24),2(6),4,8,11,13,15,17,21(25),22-decaen-22-amine]
TPM3-NTRK1-wt/CD74-ROS1-G2032R: A (bin A for very high selectivity, ratio>30-fold)
TPM3-NTRK1-wt/CD74-ROS1-wt: A (bin A for very high selectivity, ratio>30-fold)
TPM3-NTRK1-wt/EML4-ALK-L1196M-G1202R: C (bin C for moderate selectivity, ratio≥1)
TPM3-NTRK1-wt/EML4-ALK-wt: A (bin A for very high selectivity, ratio>30-fold)

Cc1nn(CC2CC2)c2c1Cc1cc(C(F)F)nn1-c1ccc(F)cc1[C@@H](C)Oc1cc-2cnc1N [Example 125, (19R)-3-(cyclopropylmethyl)-10-(difluoromethyl)-16-fluoro-5,19-dimethyl-20-oxa-3,4,11,12,23-pentaazapentacyclo[19.3.1.0^2,^6.0^8,^12.0^13,^18]pentacosa-1(24),2(6),4,8,10,13,15,17,21(25),22-decaen-22-amine]
TPM3-NTRK1-wt/CD74-ROS1-G2032R: A (bin A for very high selectivity, ratio>30-fold)
TPM3-NTRK1-wt/CD74-ROS1-wt: A (bin A for very high selectivity, ratio>30-fold)
TPM3-NTRK1-wt/EML4-ALK-L1196M-G1202R: A (bin A for very high selectivity, ratio>30-fold)
TPM3-NTRK1-wt/EML4-ALK-wt: A (bin A for very high selectivity, ratio>30-fold)

C[C@H]1Oc2cc(cnc2N)-c2c(nn(C)c2C#N)Cc2ccnn2-c2ccc(F)cc21 [Example 169, (19R)-22-amino-16-fluoro-4,19-dimethyl-20-oxa-4,5,11,12,23-pentaazapentacyclo[19.3.1.0^2,^6.0^8,^12.0^13,^18]pentacosa-1(24),2,5,8,10,13,15,17,21(25),22-decaene-3-carbonitrile]
TPM3-NTRK1-wt/CD74-ROS1-G2032R: C (bin C for moderate selectivity, ratio≥1)
TPM3-NTRK1-wt/CD74-ROS1-wt: A (bin A for very high selectivity, ratio>30-fold)
TPM3-NTRK1-wt/EML4-ALK-L1196M-G1202R: D (bin D for low selectivity, ratio<1)
TPM3-NTRK1-wt/EML4-ALK-wt: A (bin A for very high selectivity, ratio>30-fold)

CCc1noc2c1-c1cnc(N)c(n1)O[C@H](C)c1cc(F)ccc1-c1nn(C)cc1C2 [Example 162, (19R)-3-ethyl-16-fluoro-10,19-dimethyl-5,20-dioxa-4,10,11,23,25-pentaazapentacyclo[19.3.1.0^2,^6.0^8,^12.0^13,^18]pentacosa-1(24),2(6),3,8,11,13,15,17,21(25),22-decaen-22-amine]
TPM3-NTRK1-wt/CD74-ROS1-G2032R: B (bin B for high selectivity, ratio>10-fold)
TPM3-NTRK1-wt/CD74-ROS1-wt: A (bin A for very high selectivity, ratio>30-fold)
TPM3-NTRK1-wt/EML4-ALK-L1196M-G1202R: C (bin C for moderate selectivity, ratio≥1)
TPM3-NTRK1-wt/EML4-ALK-wt: A (bin A for very high selectivity, ratio>30-fold)

Cc1nc2c(s1)Cc1c(c(C#N)nn1C)-c1cnc(N)c(c1)O[C@H](C)c1cc(F)ccc1-2 [Example 82, (19R)-22-amino-16-fluoro-5,10,19-trimethyl-20-oxa-9-thia-4,5,11,23-tetraazapentacyclo[19.3.1.0^2,^6.0^8,^12.0^13,^18]pentacosa-1(24),2(6),3,8(12),10,13,15,17,21(25),22-decaene-3-carbonitrile]
TPM3-NTRK1-wt/CD74-ROS1-G2032R: A (bin A for very high selectivity, ratio>30-fold)
TPM3-NTRK1-wt/CD74-ROS1-wt: A (bin A for very high selectivity, ratio>30-fold)
TPM3-NTRK1-wt/EML4-ALK-L1196M-G1202R: B (bin B for high selectivity, ratio>10-fold)
TPM3-NTRK1-wt/EML4-ALK-wt: A (bin A for very high selectivity, ratio>30-fold)

CCn1ncc2c1-c1cnc(N)c(c1)O[C@H](C)c1cc(F)ccc1-c1ncccc1C2 [Example 3, (20R)-3-ethyl-17-fluoro-20-methyl-21-oxa-3,4,12,24-tetraazapentacyclo[20.3.1.0^2,^6.0^8,^13.0^14,^19]hexacosa-1(25),2(6),4,8(13),9,11,14,16,18,22(26),23-undecaen-23-amine]
TPM3-NTRK1-wt/CD74-ROS1-G2032R: A (bin A for very high selectivity, ratio>30-fold)
TPM3-NTRK1-wt/EML4-ALK-L1196M-G1202R: B (bin B for high selectivity, ratio>10-fold)
TPM3-NTRK1-wt/EML4-ALK-wt: A (bin A for very high selectivity, ratio>30-fold)

CC1Oc2cc(cnc2N)-c2c(nn(C)c2C#N)Cc2cnccc2-c2ccc(F)cc21 (stereo not drawn) [Example 59, 23-amino-17-fluoro-4,20-dimethyl-21-oxa-4,5,10,24-tetraazapentacyclo[20.3.1.0^2,^6.0^8,^13.0^14,^19]hexacosa-1(25),2,5,8(13),9,11,14,16,18,22(26),23-undecaene-3-carbonitrile]
TPM3-NTRK1-wt/CD74-ROS1-G2032R: C (bin C for moderate selectivity, ratio≥1)
TPM3-NTRK1-wt/CD74-ROS1-wt: A (bin A for very high selectivity, ratio>30-fold)
TPM3-NTRK1-wt/EML4-ALK-L1196M-G1202R: D (bin D for low selectivity, ratio<1)

CCn1ncc2c1-c1cnc(N)c(c1)O[C@H](C)c1cc(F)ccc1-c1onc(C)c1C2 [Example 161, (19R)-3-ethyl-16-fluoro-9,19-dimethyl-11,20-dioxa-3,4,10,23-tetraazapentacyclo[19.3.1.0^2,^6.0^8,^12.0^13,^18]pentacosa-1(24),2(6),4,8(12),9,13,15,17,21(25),22-decaen-22-amine]
TPM3-NTRK1-wt/CD74-ROS1-G2032R: C (bin C for moderate selectivity, ratio≥1)
TPM3-NTRK1-wt/CD74-ROS1-wt: C (bin C for moderate selectivity, ratio≥1)
TPM3-NTRK1-wt/EML4-ALK-L1196M-G1202R: D (bin D for low selectivity, ratio<1)
TPM3-NTRK1-wt/EML4-ALK-wt: C (bin C for moderate selectivity, ratio≥1)

C[C@H]1Oc2cc(cnc2N)-c2c(c(Cl)nn2CC(F)F)Cc2cn(C)nc2-c2ccc(F)cc21 [Example 83, (19R)-5-chloro-3-(2,2-difluoroethyl)-16-fluoro-10,19-dimethyl-20-oxa-3,4,10,11,23-pentaazapentacyclo[19.3.1.0^2,^6.0^8,^12.0^13,^18]pentacosa-1(24),2(6),4,8,11,13,15,17,21(25),22-decaen-22-amine]
TPM3-NTRK1-wt/CD74-ROS1-G2032R: A (bin A for very high selectivity, ratio>30-fold)
TPM3-NTRK1-wt/CD74-ROS1-wt: A (bin A for very high selectivity, ratio>30-fold)
TPM3-NTRK1-wt/EML4-ALK-L1196M-G1202R: A (bin A for very high selectivity, ratio>30-fold)
TPM3-NTRK1-wt/EML4-ALK-wt: A (bin A for very high selectivity, ratio>30-fold)

CCn1nc(OC)c2c1-c1cnc(N)c(c1)O[C@H](C)c1cc(F)ccc1-c1nn(C)cc1C2 [Example 181, (19R)-3-ethyl-16-fluoro-5-methoxy-10,19-dimethyl-20-oxa-3,4,10,11,23-pentaazapentacyclo[19.3.1.0^2,^6.0^8,^12.0^13,^18]pentacosa-1(24),2(6),4,8,11,13,15,17,21(25),22-decaen-22-amine]
TPM3-NTRK1-wt/CD74-ROS1-G2032R: A (bin A for very high selectivity, ratio>30-fold)
TPM3-NTRK1-wt/CD74-ROS1-wt: A (bin A for very high selectivity, ratio>30-fold)
TPM3-NTRK1-wt/EML4-ALK-L1196M-G1202R: C (bin C for moderate selectivity, ratio≥1)
TPM3-NTRK1-wt/EML4-ALK-wt: A (bin A for very high selectivity, ratio>30-fold)

Cn1nc(C#N)c2c1Cc1cccnc1-c1ccc(F)cc1COc1cc-2cnc1N [Example 101, 23-amino-17-fluoro-5-methyl-21-oxa-4,5,12,24-tetraazapentacyclo[20.3.1.0^2,^6.0^8,^13.0^14,^19]hexacosa-1(25),2(6),3,8(13),9,11,14,16,18,22(26),23-undecaene-3-carbonitrile]
TPM3-NTRK1-wt/CD74-ROS1-G2032R: A (bin A for very high selectivity, ratio>30-fold)
TPM3-NTRK1-wt/CD74-ROS1-wt: A (bin A for very high selectivity, ratio>30-fold)
TPM3-NTRK1-wt/EML4-ALK-L1196M-G1202R: A (bin A for very high selectivity, ratio>30-fold)
TPM3-NTRK1-wt/EML4-ALK-wt: A (bin A for very high selectivity, ratio>30-fold)

Cc1cc2n(n1)-c1ccc(F)cc1[C@@H](C)Oc1cc(cnc1N)-c1c(cnn1CC1CC1)C2 [Example 109, (19R)-3-(cyclopropylmethyl)-16-fluoro-10,19-dimethyl-20-oxa-3,4,11,12,23-pentaazapentacyclo[19.3.1.0^2,^6.0^8,^12.0^13,^18]pentacosa-1(24),2(6),4,8,10,13,15,17,21(25),22-decaen-22-amine]
TPM3-NTRK1-wt/CD74-ROS1-G2032R: A (bin A for very high selectivity, ratio>30-fold)
TPM3-NTRK1-wt/CD74-ROS1-wt: A (bin A for very high selectivity, ratio>30-fold)
TPM3-NTRK1-wt/EML4-ALK-L1196M-G1202R: A (bin A for very high selectivity, ratio>30-fold)
TPM3-NTRK1-wt/EML4-ALK-wt: A (bin A for very high selectivity, ratio>30-fold)
